Experiments:
[1] = molecular target: T1, dFABP (Drosophila brain-type FABP) (Drosophila melanogaster, UniProt Q9VGM2); experiment: intrinsic tyrosine fluorescence melting; assay type: binding; conditions: GuHCl-purified dFABP; protein:OA 1:2; 20 mM Tris pH 8.0, 1 mM beta-ME
T1 sequence (Q9VGM2 1-130): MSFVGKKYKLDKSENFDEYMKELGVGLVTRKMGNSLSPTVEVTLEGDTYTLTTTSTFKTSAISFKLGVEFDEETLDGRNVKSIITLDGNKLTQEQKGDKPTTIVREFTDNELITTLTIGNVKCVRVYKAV

[2] = molecular target: T1, dFABP (Drosophila brain-type FABP); experiment: isothermal titration calorimetry; assay type: binding

change in Tm [1]: ~ 5 °C
Kd [2]: ~1.6 µM
Compound: CCCCCCCC/C=C\CCCCCCCC(=O)O [OA, oleic acid]
